Test results reported in paper PMC11904221 (EMBO Molecular Medicine, 2025).
Like-named read-outs stand apart in the source and are kept apart here. Where a SMILES comes first, the peptide text is derived from it.

What was measured:
in vitro [1] = experiment: in vitro
[2] = mouse, in vivo, ip
Description: A single intraperitoneal injection on day 1 was followed by a 14-day observation period. Parameters monitored included mortality, morbidity, clinical signs, and body weight. At the study’s end, gross pathology and organ necropsy were conducted. […] Evaluations encompassed clinical observations, body weight, food consumption, hematology, blood chemistry, gross pathology, selected organ necropsy, and weight, and histopathology examinations. Comprehensive study details are in Appendix pharmacological studies-1 and -2. […]
was assessed in the present study.
Methods: 4 groups (5 males and 5 females per group) were assigned for this study. In each gender, reference item control groups (1F+1M) received the reference item (Saline Solution, NaCl 0,9%) and 3 treated groups […]
4F+4M) mg/kg. All animals were IP dosed and followed daily for 2 weeks (5 days a week). During the study, mortality and general clinical observation, body weight, food consumption, hematology, blood chemistry, gross pathology, selected organ necropsy and weight and histopathology examination of control and high dose groups […]
dosing of five female and five male mice (Table 1 and Table 2). The choice of the number and the gender of the animals were based on OECD guidelines.
Study variables and end points […]
Observations for signs of morbidity and mortality were performed daily. […] The time of death was recorded as precisely as possible. […]

[3] = for microsomal CLint: liver microsomes
[4] = mouse
in vitro [5] = experiment: in vitro; remark: listed apart in the source
[6] = Pharmacokinetic profile in mice, LC/MS; type: in vivo, mouse; settings: mouse, iv, 100 mg/kg
Description: Pharmacokinetic profile of APLN-DM in mice
The aim of the current study was to evaluate pharmacokinetic properties of APLN-DM peptide administrated intravenously (IV) or intraperitoneously (IP) in Balb/C mice. […]
for the IP group). Development of quantification method was performed using liquid chromatography coupled to mass spectrometry (LC/MS).
Results: Samples obtained in vivo were analyzed according to quantification-developed method and the peptide was detectable until 15 minutes after administration. Analysis allowed determining that APLN-DM […]
All animals were divided to three groups of 27 animals, one of 12 animals and one of 3 animals (vehicle) and will receive the corresponding test item according to Table 1. Each animal was weighed and administered at the appropriate volume.
Concentration ROA Blood Individual animal numbers
Group No. Treatment Dose Collect
Table 11 - Group allocation
Development of analytic method
Standard range from 0.5 to 100 µM was prepared and analysed for each fragmented ion as previously […]
Standard curves obtained for each ion are represented in Figure 6.
Figure 8: Standard curves obtained by quantification of each fragmented ion The best linearity was obtained by quantifying the fragmented ion 785 (z=5).
Quantification of APLN-DM in samples
Summary of analytical method development:
Quantification method was performed according to previous work. In summary, samples were analysed with a LC-MS triple quadripole system (ESI QqQ). The chromatographic system was a UPLC activity (Waters) coupled to a mass spectrometer TSQ Quantum Ultra (Thermo) equipped with triple quadripole analyser and electrospray ionisation (ESI) system. The selected column was Kinetex F5 […] 50x2.1 mm (Phenomenex). The analysis was made by quantifying fragmented ion z=5 (m/z=785) in samples compared […]
quantitation was previously determined to be 0.5 µM. Samples were analysed after protein precipitation as […]
In vivo phase samples analysis
As the stability of peptide is low, even in frozen plasma, it was decided to re-run the in vivo phase for the highest dose and to use freshly prepared samples.
26 samples were used for analysis.
Only samples taken 5 and 10 minutes after peptide administration presented detectable concentrations (see
Table 9). While 15 min results were on the level of accuracy (linearity threshold values). At a later time […]
estimated based on the 5 and 10 min measurements.
Sample ID Area Calculated amount

Q: Which “% Protein bound, 1st” value (in vitro [1]) does the source give for `CSCC[C@H](NC(=O)[C@@H]1CCCN1C(=O)CNC(=O)[C@H](CCCCN)NC(=O)[C@H](Cc1c[nH]cn1)NC(=O)[C@H](CO)NC(=O)[C@H](CC(C)C)NC(=O)[C@H](CCCNC(=N)N)NC(=O)[C@@H]1CCCN1C(=O)[C@H](CCCNC(=N)N)NC(=O)[C@H](CCC(N)=O)NC(=O)[C@H](CO)NC(=O)[C@H](CO)NC(=O)[C@H](Cc1ccccc1)NC(=O)[C@H](CCCCN)NC(=O)[C@H](CO)NC(=O)[C@H](CO)NC(=O)CNC(=O)CNC(=O)[C@H](CCC(N)=O)NC(=O)[C@H](Cc1c[nH]c2ccccc12)NC(=O)[C@@H]1CCCN1C(=O)CNC(=O)[C@@H]1CCCN1C(=O)CNC(=O)[C@H](CC(N)=O)NC(=O)[C@H](CCCNC(=N)N)NC(=O)[C@H](CO)NC(=O)CNC(=O)[C@H](CCCNC(=N)N)NC(=O)[C@@H]1CCCN1C(=O)[C@H](CCC(N)=O)NC(=O)[C@@H](NC(=O)[C@@H](N)CC(C)C)C(C)C)C(=O)N1CCC[C@H]1C(=O)N[C@@H](Cc1ccccc1)C(=O)O` [APLN-DM] (H-LVQPRGSRNGPGPWQGGSSKFSSQRPRLSHKGPMPF-OH) here?
A: The value was 56.8%.

Q: And the “% Protein bound, 2nd” value (in vitro [1])?
A: Its value is 52.2%.

Q: And the “% Recovery, 1st” value (in vitro [1])?
A: Its value is 123%.

Q: What about the “% Recovery, 2nd” value (in vitro [1]) of the same compound?
A: The value was 125%.

Q: And the “% Recovery, Mean” value (in vitro [1])?
A: The value was 124%.

Q: And the fraction unbound at 4 h, 1e-05 M (in vitro [1]; human, plasma)?
A: Its fraction unbound at 4 h, 1e-05 M is 0.46.

Q: What about the “MTD repeated administrations / highest tested dose found safe” value [2] of the same compound?
A: The value was 300 mg/kg/day.

Q: What about the clearance category [3] of the same compound?
A: The clearance category was “high”.

Q: And the “Half-life, 1st” value ([3]; human)?
A: Its value is 1.24 h.

Q: What about the “Half-life, 2nd” value ([3]; human) of the same compound?
A: The value was 1.14 h.

Q: And the “Half-life, Mean” value ([3]; human)?
A: The value was over 1 h.

Q: And the microsomal CLint ([3]; human)?
A: Its microsomal CLint is under 116 µL/min/mg.

Q: What about the microsomal CLint [3] of the same compound?
A: The microsomal CLint was under 116 µL/min/mg.

Q: And the “Half-life, 1st” value [4]?
A: Its value is 0.645 h.

Q: And the “Half-life, 2nd” value [4]?
A: Its value is 1.867 h.

Q: What about the half-life ([4]; liver microsomes) of the same compound?
A: Its half-life is over 1 h.

Q: And the microsomal CLint ([4]; liver microsomes)?
A: Its microsomal CLint is under 116 µL/min/mg.

Q: And the “Half-life in human plasma” value (in vitro [5])?
A: Its value is over 18 h.

Q: And the “Half-life, 1st” value (in vitro [5]; human)?
A: The value was 21.173 h.

Q: What about the “Half-life, 2nd” value (in vitro [5]; human) of the same compound?
A: Its value is 16.21 h.

Q: And the half-life at 1 µM (in vitro [5]; human, plasma)?
A: Its half-life at 1 µM is 18.7 h.

Q: What about the remaining at 0.5 h (in vitro [5]; human, plasma) of the same compound?
A: Its remaining at 0.5 h is 99%.

Q: And the remaining at 1 h (in vitro [5]; human, plasma)?
A: The remaining at 1 h was 98%.

Q: And the remaining at 2 h (in vitro [5]; human, plasma)?
A: The remaining at 2 h was 93%.

Q: What about the level at time molar at 5 min ([6]; Balb/C, plasma, group 2F, 100 mg/kg IV, 5 min, samples 1-3, no unit printed (standards in µM), read-out: Calculated amount in plasma sample) of the same compound?
A: The level at time molar at 5 min was 0.793 µM.

Q: And the level at time molar at 10 min ([6]; Balb/C, plasma, group 2F, 100 mg/kg IV, 10 min, samples 1-3, read-out: Calculated amount in plasma sample)?
A: The level at time molar at 10 min was 658 nM.

Q: What about the half-life ([6]; female, Balb/C mice plasma, LC/MS, estimated from the 5 and 10 min samples, read-out: half-life in vivo in mice) of the same compound?
A: Its half-life is about 0.333 h.
